{
  "source": "patent US12364721B2",
  "about": "“Compositions and methods for treatment of inflammatory and immune diseases” (Prolacta Bioscience, Inc., priority 2019, dated 2025)",
  "key": {"[1]": {"tested_on": "B. longum subsp. infantis", "assay": "Growth of B. longum subsp. infantis in the presence of acid-reducing compounds (OD600)", "format": "cell-based", "details": "24 hours; 125 μg/mL; versus vehicle controls", "procedure": "Growth of B. longum subsp. infantis was assessed in the presence of various acid-reducing compounds, including proton pump inhibitor (PPI) compounds and an H2 receptor antagonist. Stock solutions were prepared by adding 10 mg/mL omeprazole, esomeprazole, lansoprazole, pantoprazole, rabeprazole, and famotidine to DMSO. The stock solutions were diluted 1:4 in PBS and then added in 2-fold serial dilutions to Reinforced Clostridial Media (RCM). The media was then inoculated with 5×10^5 colony forming units (CFU) of B. longum subsp. infantis and incubated under anaerobic conditions at 37° C. Vehicle only control groups consisted of 5×10^5 CFU B. longum subsp. infantis incubated in RCM with the same amounts of PBS and DMSO as the PPI conditions for each dose."}, "[2]": {"tested_on": "B. longum subsp. infantis", "assay": "Viability of B. longum subsp. infantis after exposure to acid reducing compounds (anaerobic CFU)", "format": "cell-based", "details": "1 μg/ml and 0.5 μg/ml in citrate buffer (pH 5), 3 hours at 37° C.; with respect to buffer only controls", "procedure": "Viability of B. longum subsp. infantis following exposure to various acid reducing compounds was examined. The benzimidazole derivative compounds omeprazole, esomeprazole, lansoprazole, pantoprazole, and rabeprazole and the H2 receptor antagonist famotidine were suspended in citrate buffer (pH 5) to concentrations of 1 μg/ml and 0.5 μg/ml. An amount of 2.4×10^8 colony forming units (CFU) B. longum subsp. infantis was pelleted and resuspended in each of the citrate buffer and drug solutions. Controls included 2.4×10^8 CFU B. longum subsp. infantis added to citrate buffer alone. Cells were incubated for 3 hours at 37° C. and then plated under anaerobic conditions. Anaerobic CFU were quantified to assess viability."}},
  "data": [
    {"molecule": "Cc1c(OCC(F)(F)F)ccnc1C[S+]([O-])c1nc2ccccc2[nH]1", "note": "(centres unmarked) [lansoprazole]", "values": [
      {"measurement": "OD600 values", "setting": "[1]", "value": "reduced OD600 values with respect to vehicle controls"},
      {"measurement": "anaerobic CFU counts", "setting": "[2]", "value": "generally higher"}
    ]}
  ]
}
